What follows are compounds tested against Carbonic anhydrase 7 (Homo sapiens, UniProt P43166).
Chain of Carbonic anhydrase 7 (P43166 whole entry): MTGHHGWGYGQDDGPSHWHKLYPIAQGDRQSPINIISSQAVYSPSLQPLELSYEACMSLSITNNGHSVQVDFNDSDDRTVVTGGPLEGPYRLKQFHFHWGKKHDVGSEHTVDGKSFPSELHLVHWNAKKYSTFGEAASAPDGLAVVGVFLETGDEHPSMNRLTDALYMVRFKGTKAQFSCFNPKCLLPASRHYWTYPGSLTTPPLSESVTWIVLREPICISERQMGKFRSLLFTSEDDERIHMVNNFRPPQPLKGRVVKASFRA
Description: Ki value against human carbonic anhydrase VII

Structure (SMILES)	Ki [nM]
Nc1ccccc1S(N)(=O)=O	45
Cc1ccc(S(N)(=O)=O)cc1 [P-TOLUENESULFONAMIDE]	88
Nc1ccc(S(N)(=O)=O)cc1 [SULFANILAMIDE]	70
Nc1ccc(S(=O)(=O)NCCc2ccc(S(N)(=O)=O)cc2)cc1	6.5
NNc1ccc(S(N)(=O)=O)cc1	89
NS(=O)(=O)c1nc2ccccc2s1	4
NS(=O)(=O)c1nnc(-c2ccccc2Cl)s1	5.4
Nc1ccc(S(=O)(=O)NC2NN=C(S(N)(=O)=O)S2)cc1 (stereo not given)	7
Cn1nc(S(N)(=O)=O)sc1=N	4.3
Nc1ccc(S(N)(=O)=O)cc1Cl	120

More lines, in order of falling Ki, values ahead:

Ki [nM]	Structure (SMILES)
150	Nc1ccc(S(N)(=O)=O)cc1I
75	NCc1ccc(S(N)(=O)=O)cc1 [MAFENIDE]
75	Nc1ccc(S(N)(=O)=O)cc1F
68	NNc1ccccc1S(N)(=O)=O
66	NS(=O)(=O)c1ccc(CCO)cc1
61	Nc1ccc(S(N)(=O)=O)cc1Br
60	NS(=O)(=O)c1ccc(CO)cc1
52	NS(=O)(=O)c1ccc(C(=O)O)cc1 [CARZENIDE]
6.8	Nc1nccc(Nc2ccc(S(N)(=O)=O)cc2)n1
5.6	Nc1ccc(S(=O)(=O)NCc2ccc(S(N)(=O)=O)cc2)cc1
5.2	Nc1nnc(S(N)(=O)=O)s1

These compounds were tested against Carbonic anhydrase 13 (Mus musculus, UniProt Q9D6N1).
Chain of Carbonic anhydrase 13 (Q9D6N1 whole entry): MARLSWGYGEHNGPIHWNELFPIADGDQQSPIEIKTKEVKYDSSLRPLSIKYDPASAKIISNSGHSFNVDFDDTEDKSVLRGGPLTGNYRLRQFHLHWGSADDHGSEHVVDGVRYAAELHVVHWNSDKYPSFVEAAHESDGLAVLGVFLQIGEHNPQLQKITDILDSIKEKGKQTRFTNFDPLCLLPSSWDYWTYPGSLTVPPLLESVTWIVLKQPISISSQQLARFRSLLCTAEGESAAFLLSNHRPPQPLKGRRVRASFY
Description: Ki value against murine carbonic anhydrase XIII

Ki [nM]	Structure (SMILES)
1.9	Nc1ccc(S(=O)(=O)NCCc2ccc(S(N)(=O)=O)cc2)cc1
2	Nc1ccc(S(=O)(=O)NCc2ccc(S(N)(=O)=O)cc2)cc1

These compounds were tested against Carbonic anhydrase 1 (Homo sapiens, UniProt P00915).
Chain of Carbonic anhydrase 1 (P00915 whole entry): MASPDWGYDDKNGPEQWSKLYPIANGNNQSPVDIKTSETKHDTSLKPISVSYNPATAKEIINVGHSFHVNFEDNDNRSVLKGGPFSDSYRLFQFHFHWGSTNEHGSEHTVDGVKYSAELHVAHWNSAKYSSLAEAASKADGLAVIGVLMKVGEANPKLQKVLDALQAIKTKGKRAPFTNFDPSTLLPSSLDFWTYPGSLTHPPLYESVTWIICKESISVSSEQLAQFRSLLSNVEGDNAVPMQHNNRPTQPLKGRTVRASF
Description: Ki value against human carbonic anhydrase I

Structure (SMILES)	Ki [nM]
NNc1ccc(S(N)(=O)=O)cc1	28000
NS(=O)(=O)c1nnc(-c2ccccc2Cl)s1	690

Reference: ChEMBL document CHEMBL1141985, “Carbonic anhydrase inhibitors. Inhibition of the human cytosolic isozyme VII with aromatic and heterocyclic sulfonamides” (Bioorg Med Chem Lett, 2005)
